This assay concerns the target Prostacyclin synthase (Sus scrofa). Description: Inhibition of porcine aorta prostacyclin PGI-2 synthetase.
Regarding `O=C(O)c1ccc2oc(Cn3ccnc3)c(Cl)c2c1` [3-Chloro-2-imidazol-1-ylmethyl-benzofuran-5-carboxylic acid], the IC50 was more than 100 µM. Next, `O=C(O)c1ccc2sc(Cn3ccnc3)cc2c1` [2-Imidazol-1-ylmethyl-benzo[b]thiophene-5-carboxylic acid]: more than 100 µM. The value for `Cc1c(Cn2ccnc2)sc2cc(C(=O)O)ccc12` [2-Imidazol-1-ylmethyl-3-methyl-benzo[b]thiophene-6-carboxylic acid] was more than 100 µM; that for `Cc1c(Cn2ccnc2)oc2ccc(C(=O)O)cc12` [2-Imidazol-1-ylmethyl-3-methyl-benzofuran-5-carboxylic acid] was more than 100 µM. Next, `O=C(O)c1ccc2c(Cl)c(Cn3ccnc3)sc2c1` [3-Chloro-2-imidazol-1-ylmethyl-benzo[b]thiophene-6-carboxylic acid]: more than 100 µM; `Cc1c(Cn2ccnc2)sc2ccc(C(=O)O)cc12` [2-Imidazol-1-ylmethyl-3-methyl-benzo[b]thiophene-5-carboxylic acid]: more than 100 µM.

For the origin of these results see BindingDB's records for doi:10.1021/jm00159a013 (1986).
